Publication PMC3328499 (PLoS ONE, 2012)

Experiments:
MalE-MalFGK2 complex = target: T1, MalE-MalFGK2 complex (Escherichia coli, UniProt P02916+P0AEX9+P68183+P68187, T177W/T57C); assay: Maltose affinity of transporter-bound MalE (fluorescence quenching, competitive fit and equilibrium titration); type: binding, E. coli; conditions: sugar 1 mM added to preformed complex, AMP-PNP
T1 construct: made in house; host or cells: E. coli BL21
Description: After incubation (10 min, 37°C), samples were analyzed by CN-PAGE and (A) autoradiography or (B) Coomassie blue staining. […] At the indicated time (arrow), 1 mM maltooligosaccharides were added to the reaction mixture. […] After incubation (10 min, 37°C), samples were analyzed by CN-PAGE and autoradiography.
Fluorescence was recorded on a Cary Eclipse spectrofluorometer at 25°C. […] Excitation and emission wavelength were 280 nm and 350 nm, respectively (10 nm slit widths). […] The fluorescence emission was monitored over time and the signal was allowed to equilibrate after each addition for 180 s.
Competitive one-site ligand binding. […] The data (Fig. 2F, red curve) were fitted to a competitive one-site binding equation, defined as: [picture]

Nd-MalFGK2 [1] = target: T2, Nd-MalFGK2 (Escherichia coli, UniProt P02916+P68183+P68187); assay: ATPase activity of MalFGK2 in nanodiscs; type: biochemical, E. coli
T2 construct: made in house; host or cells: E. coli BL21
Description: Figure 1 ATPase activity of the MalFGK2 complex in nanodiscs. (A) The MalFGK2 complex in nanodisc (lane 1) and detergent solution (lane 2) was analyzed by BN-PAGE and CN-PAGE followed by Coomassie blue staining of the gel. Molecular weight markers: BSA (67/134 kDa); catalase (232 kDa); ferritin (440 kDa). On CN-PAGE, the MalFGK2 complex precipitates as a protein smear at the top of the gel. […] The reported values were derived from 3 independent experiments.
(§1) Samples were analyzed by CN-PAGE and autoradiography. […] After incubation (10 min, 37°C), samples were analyzed by CN-PAGE and autoradiography. […] The reported values were derived from 3 independent experiments.
(§2) The MalFGK2 ATPase activity was determined by monitoring the release of inorganic phosphate using photo-colorimetric method. Linear gradient blue-native (BN) and colorless-native (CN) gel electrophoresis was performed as described. Sucrose gradient analysis was performed as described. MalE was iodinated using the Iodogen reagent (Pierce-Thermo Scientific). The specific activity of [^125I]-MalE was ∼2×10^5 c.p.m./μg.

Nd-MalFGK2 [2] = target: T2, Nd-MalFGK2; assay: Native-PAGE (CN-PAGE) binding of [125I]-MalE to Nd-MalFGK2; parameters: species or system E. coli; conditions: maltose 1 mM, AMP-PNP or ATP plus vanadate
Description: After incubation (10 min, 37°C), samples were analyzed by CN-PAGE followed by Coomassie blue staining (bottom part) and autoradiography (upper part). […] After incubation (10 min, 37°C), samples were analyzed by CN-PAGE followed by Coomassie blue staining (bottom part) then autoradiography (upper part). […] After incubation (10 min, 37°C), samples were analyzed by CN-PAGE and autoradiography. […] The position MalE-31 and MalF-177 are indicated in red. […] When the data were fitted to one-site binding equation, the dissociation constant in the presence of AMP-PNP was ∼79 nM.
as §1, §2

[3] = read-out: Kd of BtuF for its ligand; cited from earlier work
BtuCD = conditions: cited from earlier work
HisQM = system: HisQM; parameters: method as in PMID 8662800; conditions: cited from earlier work

T2 sequence (P68187 whole entry): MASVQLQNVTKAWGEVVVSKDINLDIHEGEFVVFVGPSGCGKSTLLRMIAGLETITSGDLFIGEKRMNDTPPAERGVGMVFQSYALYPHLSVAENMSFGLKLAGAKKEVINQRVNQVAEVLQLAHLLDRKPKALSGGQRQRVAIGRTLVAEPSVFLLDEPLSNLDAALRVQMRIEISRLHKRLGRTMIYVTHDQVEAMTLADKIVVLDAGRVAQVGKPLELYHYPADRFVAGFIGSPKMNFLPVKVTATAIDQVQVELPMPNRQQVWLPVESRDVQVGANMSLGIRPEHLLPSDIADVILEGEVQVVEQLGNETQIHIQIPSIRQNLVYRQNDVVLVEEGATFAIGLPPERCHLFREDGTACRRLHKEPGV
T2 sequence (P68183 whole entry): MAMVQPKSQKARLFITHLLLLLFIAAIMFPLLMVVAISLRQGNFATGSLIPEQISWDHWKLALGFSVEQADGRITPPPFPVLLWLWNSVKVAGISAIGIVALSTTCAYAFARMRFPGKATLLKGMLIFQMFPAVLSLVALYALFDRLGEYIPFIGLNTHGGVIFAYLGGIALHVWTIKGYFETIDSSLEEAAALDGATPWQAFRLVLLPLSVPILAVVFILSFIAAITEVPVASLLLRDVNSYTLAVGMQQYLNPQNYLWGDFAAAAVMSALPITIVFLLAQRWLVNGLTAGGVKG
T2 sequence (P02916 whole entry): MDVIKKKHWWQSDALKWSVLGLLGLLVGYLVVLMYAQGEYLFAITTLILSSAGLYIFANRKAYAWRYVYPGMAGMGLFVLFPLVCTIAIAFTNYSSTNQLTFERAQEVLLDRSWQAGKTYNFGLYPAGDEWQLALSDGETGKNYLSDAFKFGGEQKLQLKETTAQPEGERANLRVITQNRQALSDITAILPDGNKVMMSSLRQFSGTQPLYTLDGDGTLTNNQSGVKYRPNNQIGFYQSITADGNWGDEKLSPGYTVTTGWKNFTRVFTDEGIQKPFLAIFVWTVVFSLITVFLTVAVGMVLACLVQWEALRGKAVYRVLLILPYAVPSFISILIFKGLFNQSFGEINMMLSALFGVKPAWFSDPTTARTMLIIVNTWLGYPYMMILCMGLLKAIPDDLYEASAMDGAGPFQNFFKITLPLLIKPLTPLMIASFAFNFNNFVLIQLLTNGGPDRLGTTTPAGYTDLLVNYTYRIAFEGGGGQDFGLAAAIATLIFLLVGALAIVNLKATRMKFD
T1 sequence (P68187 whole entry): as the sequence (P68187 whole entry) above
T1 sequence (P68183 whole entry): as the sequence (P68183 whole entry) above
T1 sequence (P02916 whole entry T177W): as the sequence (P02916 whole entry) above, with T177W counted along it

OC[C@H]1O[C@H](O[C@H]2[C@H](O)[C@@H](O)C(O)O[C@@H]2CO)[C@H](O)[C@@H](O)[C@@H]1O (mixture of isomers) [maltose]
dissociation of MalE from the transporter in nanodiscs (MalE-MalFGK2 complex): rapid loss of fluorescence quenching
effect of maltose on MalE-stimulated ATPase activity (Nd-MalFGK2 [1]; in disc and in detergent, maltose 1 mM, MalE 2 µM): significant inhibition of the ATPase activity
effect of maltose alone on basal ATPase activity (Nd-MalFGK2 [1]; no MalE): did not effect the basal ATPase activity
effect of maltose on binding of MalE to MalFGK2 on native-PAGE (Nd-MalFGK2 [2]): significantly reduced

B1: BtuF: substrate binding protein of the vitamin B12 transporter (protein, UniProt P37028 23-266, looked up)
Vitamin B12-binding protein: APRVITLSPANTELAFAAGITPVGVSSYSDYPPQAQKIEQVSTWQGMNLERIVALKPDLVIAWRGGNAERQVDQLASLGIKVMWVDATSIEQIANALRQLAPWSPQPDKAEQAAQSLLDQYAQLKAQYADKPKKRVFLQFGINPPFTSGKESIQNQVLEVCGGENIFKDSRVPWPQVSREQVLARSPQAIVITGGPDQIPKIKQYWGEQLKIPVIPLTSDWFERASPRIILAAQQLCNALSQVD
Kd [3]: ~15 nM
reduction of the BtuF-BtuCD interaction by saturating vitamin B12 (BtuCD): ~10^5 fold

B2: HisJ: binding protein of histidine transport, binds HisQM (protein, UniProt P0AEU0 23-260, looked up)
Histidine-binding periplasmic …: AIPQNIRIGTDPTYAPFESKNSQGELVGFDIDLAKELCKRINTQCTFVENPLDALIPSLKAKKIDAIMSSLSITEKRQQEIAFTDKLYAADSRLVVAKNSDIQPTVESLKGKRVGVLQGTTQETFGNEHWAPKGIEIVSYQGQDNIYSDLTAGRIDAAFQDEVAASEGFLKQPVGKDYKFGGPSVKDEKLFGVGTGMGLRKEDNELREALNKAFAEMRADGTYEKLAKKYFDFDVYGG
reduction of binding of HisJ to HisQM by saturating histidine (HisQM): 3 fold
